Experimental data reported in ChEMBL document CHEMBL5226381, “Iterative Methylation Leads to 3-Methylchuangxinmycin Production in Actinoplanes tsinanensis CPCC 200056” (2023).
≈ marks a conversion by molar mass, not a printed value.

Experiments:
Type in all cases: functional
Settings in all cases: time 7-10 day
[1] = test system: Mycobacterium tuberculosis; assay: Antitubercular activity against INH/RIF-resistant Mycobacterium tuberculosis clinical isolate M7 assessed as inhibition of bacterial growth incubated for 7 to 10 days by Alamar Blue staining based analysis
[2] = test system: Mycobacterium tuberculosis; assay: Antitubercular activity against INH/RIF-resistant Mycobacterium tuberculosis clinical isolate M6 assessed as inhibition of bacterial growth incubated for 7 to 10 days by Alamar Blue staining based analysis
[3] = test system: Mycobacterium tuberculosis; assay: Antitubercular activity against INH/RIF-resistant Mycobacterium tuberculosis clinical isolate M34 assessed as inhibition of bacterial growth incubated for 7 to 10 days by Alamar Blue staining based analysis
[4] = test system: Mycobacterium tuberculosis; assay: Antitubercular activity against INH/RIF-resistant Mycobacterium tuberculosis clinical isolate M15 assessed as inhibition of bacterial growth incubated for 7 to 10 days by Alamar Blue staining based analysis

Compound | MIC [1] [µg/mL] | MIC [2] [µg/mL] | MIC [3] [µg/mL] | MIC [4] [µg/mL]
O=C(O)[C@H]1Cc2c[nH]c3cccc(c23)S1 | 0.78 (≈ 3.56 µM) | 0.78 (≈ 3.56 µM) | 0.78 (≈ 3.56 µM) | 0.78 (≈ 3.56 µM)
CC1(C)c2c[nH]c3cccc(c23)S[C@H]1C(=O)O | 25 (≈ 101 µM) | 12.5 (≈ 50.5 µM) | 25 (≈ 101 µM) | 12.5 (≈ 50.5 µM)
C[C@H]1c2c[nH]c3cccc(c23)S[C@H]1C(=O)O [CHUANGXINMYCIN] | 0.78 (≈ 3.34 µM) | 0.78 (≈ 3.34 µM) | 3.12 (≈ 13.4 µM) | 1.56 (≈ 6.69 µM)
NNC(=O)c1ccncc1 [ISONIAZID] | 8 (≈ 58.3 µM) | 8 (≈ 58.3 µM) | 8 (≈ 58.3 µM) | 4 (≈ 29.2 µM)
CO[C@H]1/C=C/O[C@@]2(C)Oc3c(C)c(O)c4c(O)c(c(/C=N/N5CCN(C)CC5)c(O)c4c3C2=O)NC(=O)/C(C)=C\C=C\[C@H](C)[C@H](O)[C@@H](C)[C@@H](O)[C@@H](C)[C@H](OC(C)=O)[C@@H]1C [RIFAMPIN] | 8 (≈ 9.72 µM) | 16 (≈ 19.4 µM) | 16 (≈ 19.4 µM) | > 64
